Reference: patent US6995175B2, “Chemical derivatives and their application as antitelomerase agent” (Aventis Pharma S.A., priority 2001, dated 2006)
Structures can show the parent of a compound that is named as a salt.

Legend:
[1] = test system: G-quadruplex oligonucleotide GGGTTAGGGTTAGGGTTAGGG (3.5 repeats of the human telomeric unit); experiment: G-quadruplex stabilization, fluorescence Tm (FAM+DABCYL oligonucleotide); type: binding; conditions: increase in Tm vs reference without product (44° C. in LiCl buffer), 0.2 μM oligonucleotide, 0.1 M LiCl, 10 mM cacodylate pH 7.6
Text: The G-quadruplex stabilizing activity may be determined by a method using the formation of a complex with fluorescein of which the experimental protocol is described below.
All the oligonucleotides, modified or otherwise, were synthesized by Eurogentec S A, Seraing, Belgium. The oligonucleotide FAM+DABCYL carries the catalogue reference OL-0371-0802. It has the sequence: […] corresponding to 3.5 repeats of the human telomeric unit (strand rich in G). The fluorescein is attached to the 5′ end, the DABCYL to the 3′ end, by the chemical arms described by Eurogentec. The concentration of the samples is checked by spectrophotometry, recording the absorbance spectrum between 220 and 700 nm and using the molar extinction coefficient provided by the supplier.
All the experiments were carried out in a 10 mM sodium cacodylate buffer pH 7.6 containing 0.1 M lithium chloride (or sodium chloride). The absence of fluorescent contamination in the buffer was checked beforehand. The fluorescent oligonucleotide is added at the final concentration of 0.2 μM.
All the measurements of fluorescence were carried out on a Spex Fluorolog DM1B apparatus, using an excitation line width of 1.8 nm and an emission line width of 4.5 nm. The samples are placed in a microquartz cuvette of 0.2×1 cm. The temperature of the sample is controlled by an external water bath. The oligonucleotide alone was analyzed at 20, 30, 40, 50, 60, 70 and 80° C. The emission spectra are recorded using an excitation wavelength of 470 nm. The excitation spectra are recorded using either 515 nm or 588 nm as emission wavelength. The spectra are corrected for the response of the instrument by reference curves. A high extinction (80–90%) of the fluorescence of fluorescein at room temperature is observed, in agreement with an intramolecular folding of the oligonucleotide at 20° C. in the form of a G-quadruplex, which induces juxtaposition of its 5′ and 3′ ends which are respectively linked to fluorescein and to DABCYL. This juxtaposition causes an already-described phenomenon of extinction of fluorescence which is used for “Molecular Beacons”.
An oligonucleotide stock solution at the strand concentration of 0.2 μM in 0.1 M LiCl, 10 mM cacodylate buffer, pH 7.6, is prepared beforehand, heated briefly at 90° C. and slowly cooled to 20° C., and then distributed in aliquots of 600 μl in the fluorescence cuvettes. […] The samples are then allowed to incubate for at least 1 hour at 20° C. before each measurement. The use of longer incubation times (up to 24 hours) has no influence on the result obtained.
Each experiment allows the measurement of only one sample. The latter is first incubated at an initial temperature of 20° C., heated to 80° C. over 38 minutes, left for 5 minutes at 80° C. and then cooled to 20° C. over 62 minutes. During this time, the fluorescence is measured simultaneously at two emission wavelengths (515 nm and 588 nm) using 470 nm as excitation wavelength. A measurement is carried out every 30 seconds. The temperature of the water bath is recorded in parallel, and the fluorescence profile as a function of the temperature is reconstituted from these values. The fluorescence profiles are then normalized between 20° C. and 80° C., and the temperature for which the intensity of emission at 515 nm is the mean of those at high and low temperature is called Tm. Under these conditions, the Tm of the reference sample without addition of product is 44° C. in a lithium chloride buffer. This temperature is increased to more than 55° C. in a sodium chloride buffer. The addition of a G-quadruplex stabilizing compound induces an increase in the Tm. This increase is judged to be significant if it is greater than 3°.

[2] = test system: human telomerase (HL60 cell extract); experiment: Inhibition of telomerase, TRAP test (TS extension and PCR with HL60 extract); type: biochemical; conditions: telomerase extract from HL60 cells
Protocol: The extract is stored at -80° C.

| SMILES | IC50 [2] | G4 Tm (G4 stabilization differential in ° C., product tested at 1 µM) [1] |
| --- | --- | --- |
| COc1cc(C)nc2ccc(NC(=O)c3ccc(C(=O)Nc4ccc5nc(C)cc(OC)c5c4)s3)cc12 [Example 1, bis[(4-methoxy-2-methylquinolin-6-yl)amido]-2,5-thiophenedicarboxylic acid] | 1700 nM | 2.5 °C |
| Cc1cc(N)c2cc(NC(=O)c3ccc(C(=O)Nc4ccc5nc(C)cc(N)c5c4)s3)ccc2n1 [Example 3, bis[(4-amino-2-methylquinolin-6-yl)amido]-2,5-thiophenedicarboxylic acid] | 950 nM | 1.7 °C |
| Cc1cc(N)c2cc(NC(=O)c3cccc(C(=O)Nc4ccc5nc(C)cc(N)c5c4)c3)ccc2n1 [Example 6, N,N′-bis(4-amino-2-methylquinolin-6-yl)-isophthalamide] | 310 nM | 16 °C |
| COc1cc(C)nc2ccc(NC(=O)Nc3cccc(NC(=O)Nc4ccc5nc(C)cc(OC)c5c4)c3)cc12 [Example 8, 1-(4-methoxy-2-methylquinolin-6-yl)-3-{3-[3-(4-methoxy-2-methylquinolin-6-yl)ureido]phenyl}urea] | 750 nM | 2.5 °C |
| CSc1c(Cl)nc(Nc2ccc3nc(C)cc(N)c3c2)nc1Nc1ccc2nc(C)cc(N)c2c1 [Example 16, N,N′-bis(4-amino-2-methyl-6-quinolyl)-2,4-diamino-6-chloro-5-methylsulfanylpyrimidine] | 550 nM | 5 °C |
| Cc1cc(N)c2cc(NC(=O)c3ccc(C(=O)Nc4ccc5nc(C)cc(N)c5c4)nc3)ccc2n1.Cl [Example 17, bis[(4-amino-2-methylquinolin-6-yl)amido]-2,5-pyridinedicarboxylic acid Hydrochloride] | 300 nM | 5.5 °C |
| Cc1cc(N(C)C)c2cc(NC(=O)/C=C/C(=O)Nc3ccc4nc(C)cc(N(C)C)c4c3)ccc2n1 [Example 18, N,N′-bis(4-dimethylamino-2-methylquinolin-6-yl)but-2-enediamide] | 1200 nM | 9 °C |
| Cc1cc(N(C)C)c2cc(NCc3ccc(C(=O)Nc4ccc5nc(C)cc(N(C)C)c5c4)nc3)ccc2n1 [Example 22, [(4-dimethylamino-2-methylquinolin-6-yl)-amido]-5-[(4-dimethylamino-2-methylquinolin-6-ylamino)methyl]pyridine-2-carboxylic acid Hydrochloride] | 2900 nM | 4 °C |
| Cc1cc(N)c2cc(NC(=O)c3cccc(C(=O)Nc4ccc5nc(C)cc(N)c5c4)n3)ccc2n1 [Example 23, bis[(4-amino-2-methylquinolin-6-yl)-amido]-2,6-pyridinedicarboxylic acid hydrochloride] | 200 nM | 23 °C |

The next lines start with results.

| IC50 [2] | SMILES | G4 Tm (G4 stabilization differential in ° C., product tested at 1 µM) [1] |
| --- | --- | --- |
| 900 nM | Cc1cc(N(C)C)c2cc(NC(=O)c3ccc(C(=O)Nc4ccc5nc(C)cc(N(C)C)c5c4)s3)ccc2n1 [Example 2, bis[(4-dimethylamino-2-methylquinolin-6-yl)amido]-2,5-thiophenedicarboxylic acid] | 10.5 °C |
| 1500 nM | Cc1cc(N(C)C)c2cc(NC(=O)c3ccc(C(=O)Nc4ccc5nc(C)cc(N(C)C)c5c4)cc3)ccc2n1 [Example 7, N,N′-bis(4-dimethylamino-2-methylquinolin-6-yl)-terephthalamide] | 2 °C |
| 800 nM | Cc1cc(N(C)C)c2cc(NC(=O)Nc3ccc(NC(=O)Nc4ccc5nc(C)cc(N(C)C)c5c4)cc3)ccc2n1 [Example 9, 1-(4-dimethylamino-2-methylquinolin-6-yl)-3-{4-[3-(4-dimethylamino-2-methylquinolin-6-yl)ureido]phenyl}urea] | 11.5 °C |
| 600 nM | Cc1cc(N(C)C)c2cc(NC(=O)c3ccc(C(=O)Nc4ccc5nc(C)cc(N(C)C)c5c4)nc3)ccc2n1 [Example 19, bis[(4-dimethylamino-2-methylquinolin-6-yl)-amido]-2,5-pyridinedicarboxylic acid] | 16 °C |
| 1100 nM | Cc1cc(N(C)C)c2cc(NC(=O)c3ccnc(C(=O)Nc4ccc5nc(C)cc(N(C)C)c5c4)c3)ccc2n1 [Example 20, bis[(4-dimethylamino-2-methylquinolin-6-yl)-amido]-2,4-pyridinedicarboxylic acid] |  |
| 1300 nM | Cc1cc(N(C)C)c2cc(NC(=O)Cc3ccc(CC(=O)Nc4ccc5nc(C)cc(N(C)C)c5c4)cc3)ccc2n1 [Example 21, N,N′-bis(4-dimethylamino-2-methylquinolin-6-yl)-1,4-phenylenediacetamide] | 3 °C |
| 500 nM | Cc1cc(N(C)C)c2cc(NC(=O)c3cccc(C(=O)Nc4ccc5nc(C)cc(N(C)C)c5c4)n3)ccc2n1 [Example 24, bis-[(4-dimethylamino-2-methylquinolin-6-yl)-amido]-2,6-pyridinedicarboxylic acid hydrochloride] | 15.6 °C |
